From patent US11612581B2, “Cannabis and derivatives thereof for the treatment of pain and inflammation related with dental pulp and bone regeneration related to dental jaw bone defects” (CANNIBITE BVBA, priority 2017, dated 2023)

Tests used:
[1] = system: bacteria's from the nerve fiber; test: Bacteria on nerve fiber of pulp removed by pulpectomy, phase contrast microscopy without staining; format: cell-based
Method: A patent diagnosed with acute pulpitis with severe signs of pain on cold irritants, percussion pain with x-ray deep caries radiolucent areas adjacent to the coronal pulp. Hyperemia is evident in the dental canal system when opening of the coronal part of pulp chamber.
Pulpectomy (Removal of the entire pulp structure of a tooth, including the pulp tissue in the roots) was performed. The pulp was analyzed by phase contrast microscopy without staining.
Following Pulpectomy a solution of 0.1 ml CBD (25%) was applied for 1 min.
The same application was made with a Clorhexidine gluconate 2% solution used in endodontics to rinse canal system of the roots. A reduction of less than 20% in bacteria's was observed.

live bacterial cells = test: Anti-bacterial activity on inflamed dental pulp and dental plaque samples, Dojindo staining, Cytation 5 imaging; format: cell-based; settings: incubated for 5 min
Method: CDB Solutions: Two CBD solutions were prepared at concentrations of 12.5% and 25% by dissolving CDB (as powder, 98% purity) in methanol to obtain the desired concentration.
Samples of inflamed dental pulp and dental plaque were collected from various subjects and incubated at 37° C. for 24 hours
The samples where then treated with CBD solutions (12.5% and 25%) and incubated for 5 min. The samples were stained with Dojindo Rapid staining kit BS02 and evaluated under a Cytation 5 cell imaging microscope.

vestibular canal pulp = test: Extracted dental pulp of hemisected wisdom tooth treated with CBD solution (samples 3a, 3b); format: cell-based, human; settings: sample 3b, 0.1 ml 25% solution, compared to 3a (Formalin)
Method: A patient with chronic irreversible pulpitis element 28 wisdom tooth.
The element was hemisected and dental pulp extracted from tooth.
Sample 3a: Palatinal pulp was placed in Formalin.
Sample 3b: 0.1 ml CDB (25%) solution was applied to the vestibular canal pulp.

[2] = system: pulp extract from the teeth; test: Pulp extract treated in-vitro and sent to pathology lab (samples 1a, 1b); format: cell-based, human; settings: 0.1 ml of Clorhexidine Gluconate 2% (sample 1a) or CBD 25% (sample 1b)
Method: The pulp extract from the teeth was treated in-vitro and was sent to pathology lab. Pulp was extracted and separated to two samples:
Sample 1a was treated with 0.1 ml Clorhexidine Gluconate 2%.

mid-femoral fractures = settings: rats with mid-femoral fractures, after eight weeks; cited from earlier work
[3] = system: chronic irreversible pulpitis combined with periapical lesion; test: Root canal treatment with CBD added to dressing and sealer, bone regeneration by X-ray (Patient 1); format: in vivo, human
Method: Histology slides prepared after pulpectomy of a second mandibular molar diagnosed with chronic irreversible pulpitis combined with periapical lesion (FIG. 6).
The treatment was performed with regular methods, in 2 steps 1 week rest. In the temporary dressing of the root canal medication Hydroxide Calcium was introduced 0.1 ml of CBD (25%) as well in the permanent sealer EWT Ken pulp sealer was introduced 0.5 ml of CBD (25%), pulp canal system sealed with sealer and gutta-percha.
With standard treatment for periapical lesion, regeneration is usually noticed 6 months after treatment.

[4] = relative to THC; cited from earlier work

SMILES | reduction of bacteria's from the nerve fiber ([1]; 0.1 ml CBD (25%) applied for 1 min following pulpectomy) | reduction in live bacterial cells as compared to an untreated sample (live bacterial cells; 12.5% CBD solution) | reduction in live bacterial cells as compared to an untreated sample (live bacterial cells; 25% CBD solution) | inflammation and infection of pulp sample (vestibular canal pulp) | pathology lab findings of treated pulp sample [2] | bone fractures healing (mid-femoral fractures) | bone regeneration on re-examination ([3]; 8 weeks after treatment) | bone regeneration in the apical region by X-ray ([3]; after 1 week, 0.1 ml CBD (25%) in Hydroxide Calcium dressing, 0.5 ml CBD (25%) in sealer) | reduction in bacteria's ([1]; Clorhexidine gluconate 2% solution, same application) | less active than THC [4]
C=C(C)[C@@H]1CCC(C)=C[C@H]1c1c(O)cc(CCCCC)cc1O [CBD, cannabidiol] | total reduction | > 75% | > 90% | no inflammation and no infection | connective tissue, bone and no bacteria | enhances bone fractures healing | total regeneration | bone regeneration was identified | – | –
N=C(NCCCCCCNC(=N)NC(=N)Nc1ccc(Cl)cc1)NC(=N)Nc1ccc(Cl)cc1.O=C(O)[C@H](O)[C@@H](O)[C@H](O)[C@H](O)CO.O=C(O)[C@H](O)[C@@H](O)[C@H](O)[C@H](O)CO [Clorhexidine gluconate] | – | – | – | – | debris, bacteria, and enamel cement | – | – | – | less than 20% | –
CCCCCc1cc(O)c2c(c1)OC(C)(C)[C@@H]1CC=C(C)C[C@@H]21 [Δ8-THC] | – | – | – | – | – | – | – | – | – | ~20%
